Results as given in US9486430B2, “Treatment of neurodegenerative disease” (priority 2010, dated 2016).

How the values were obtained:
[1] = carbidopa with levodopa; cited from earlier work
patients = settings: some patients; cited from earlier work
[2] = system: patient with stage four idiopathic Parkinson's Disease; assay: Observation of a stage four Parkinson's Disease patient on t-RES with SINEMET (Tremor Rating Scale, UPDRS); type: in vivo, human
Excerpt: (§1) As described in detail below, the parameters used to measure these findings were basic observations of speech, gait, overall function and tremor before and after administering t-RES over a period of months using the author's Tremor Rating Scale (TRS) in addition to the UPDRS (Fahn, et al., Recent Developments in Parkinson's Disease, 1989). […] The International Normalized Ratio is a measure of clotting speed in the blood used especially as an indicator of Warfarin levels in the blood in patients with Atrial Fibrillation who need reduced clotting probability, to prevent strokes and pulmonary embolisms—but not so reduced as to increase the chances of hemorrhage, especially from trauma. The INR in a normal person ranges from 0.8 to 1.2 in an A-Fib patient the INR should be maintained between 2.0 and 3.0 (Avery, et al., Clin. Pharmacol. Ther., 2011).
In a particular embodiment, the effect of t-RES on a patient with stage four idiopathic Parkinson's Disease was observed. The patient was followed closely for fourteen months while receiving t-RES. t-RES was administered daily and changes in speech, handwriting, gait, leg movement, and dyskinesias were observed. […] Handwriting samples were taken before and after taking t-RES.
Starting dose of ½ pill 3 times/day SINEMET® 25/100 and 4 pills/day SINEMET® CR 25/100. Doses were given every four hours starting at 7 am.
Eleven months into the study, patient was taking 500 mg t-RES/day, considered the lowest mega-dose, plus the added 100 mg general polyphenols which are mixed into each 125 mg t-RES capsule.
This was achieved using a scale devised by the inventor, with three states: tremor, no dyskinesia (T, ND=0); non-tremor, no dyskinesia (NT, ND=1); and dyskinesia, no tremor (D, NT=2). The patient's state was recorded every half hour from 7 am to 10 pm by the author and caregivers on all days practicable.
Daily numbers from the inventor's 0-2 Tremor Rating Scale (TRS) scale were then tallied and entered into the Unified Parkinson's Disease Rating Scale (UPDRS) for comparison.
The doses of t-RES, SINEMET® and other supplements were also noted, with adjustments being made as necessary. The results were then examined for overall changes observed when the t-RES dose was increased every few months as shown in FIG. 2.

[3] = mice; cited from earlier work
[4] = system: patient with Parkinson's Disease; assay: Tolerability of other drugs and supplements in the Parkinson's Disease patient
Excerpt: Patients on the anticoagulant warfarin are expected to have a reading between 2 and 3, with three being the least coagulated.

healthy volunteers = settings: cited from earlier work; for adverse effects in healthy volunteers: up to 5 g (5000 mg per day)
[5] = International Normalized Ratio (INR) anticoagulation test in the Parkinson's Disease patient; type: in vivo, human; settings: for INR: ref. range 0.8-1.2
Excerpt: as §1

[6] = system: monoamine oxidase A (MAO-A), MAO-B; settings: rat brain; cited from earlier work
[7] = Kidney function test in the Parkinson's Disease patient; type: in vivo, human; settings: patient on t-RES; data not shown
[8] = system: amyloid plaques in mouse brain; settings: dietary supplementation, transgenic model of Alzheimer's Disease; cited from earlier work

C[C@@](Cc1ccc(O)c(O)c1)(NN)C(=O)O [Carbidopa, carbidopa]
reduction of the amount of levodopa required to produce a given response [1]: about 75%

C#CCN(C)[C@H](C)Cc1ccccc1 [deprenyl]
extension of lifespan (patients): up to 10 years

N[C@@H](CCC(=O)N[C@@H](CS)C(=O)NCC(=O)O)C(=O)O [glutathione]
symptoms on reducing glutathione ([2]; glutathione reduced while on t-RES and SINEMET): worsening of symptoms

Cc1ccc(NC(=O)c2ccc(CN3CCN(C)CC3)cc2)cc1Nc1nccc(-c2cccnc2)n1 [imatinib]
crossing of the blood-brain barrier [3]: not able to cross the blood-brain barrier

C#CCN[C@@H]1CCc2ccccc21 [rasagiline]
tolerability in the patient ([4]; human, in vivo): neither was tolerated

Oc1ccc(C=Cc2cc(O)cc(O)c2)cc1 [resveratrol, 3,5,4′-trihydroxy-stilbene]
reported adverse events (healthy volunteers; 2000 mg twice daily, two-week study, eight healthy adults): minor diarrhea
adverse effects in healthy volunteers (healthy volunteers): no adverse effects

C#CCN(C)[C@H](C)Cc1ccccc1 [selegiline]
tolerability in the patient ([4]; therapy in conjunction with SINEMET): neither was tolerated

Oc1ccc(/C=C/c2cc(O)cc(O)c2)cc1 [t-RES, 3,5,4′-trihydroxy-trans-stilbene]
adverse effects in healthy volunteers (healthy volunteers): no adverse effects
INR ([5]; 250 mg t-Res + 81 mg/day aspirin, Oct. 26, 2010): 1
INR score (blood coagulation) ([5]; 500 mg followed by 625 mg t-RES, eight and 12 months into the study, normal range 0.8-1.2): 1
INR ([5]; 500 mg t-Res, Mar. 14, 2011): 1.0
INR ([5]; 625 mg t-Res, Jul. 6, 2011): 1.0
Total Levodopa per day ([2]; 14 months post t-RES (625 mg/day), September 2011, 550 mg before t-RES): day = 500 mg max
tremors and dyskinesias, share of the day ([2]; UPDRS ratings, t-RES plus SINEMET, FIG. 2, rarely over): ≤ 25 % of the day
patient's "on" time, share of the day ([2]; UPDRS-based, t-RES plus SINEMET, FIG. 2): 75 % of the day
dyskinesias on t-RES dose increase ([2]; each increase of t-RES by 125 mg/day, with SINEMET, FIG. 2, FIG. 3): dyskinesias increased
need for SINEMET per day after starting t-RES ([2]; first few days of t-RES, from 1½ tablets per day (150 mg levodopa) to one tablet per day): 100 mg levodopa
cognition and speech ([2]; following first administration of t-RES (125 mg capsule)): overnight improvement in cognition and speech
hallucinations ([2]; soon after beginning t-RES): completely eliminated on most days
inhibition of MAO-A compared with MAO-B [6]: slightly more than MAO-B
Kidney function [7]: within the normal range
amyloid plaques in mouse brain [8]: reduce the number of amyloid plaques
